The values below come from patent US20250188033A1, “INHIBITOR OF REPLICATION PROTEIN A1 OF TRYPANOSOMA BRUCEI AND METHOD OF USE THEREOF” (Research Foundation of the City University of New York, published 2025).

This experiment concerns Trypanosoma brucei. As to the kind of experiment: ALAMARBLUE cell viability / growth assay of T. brucei cells. It is filed as cell-based. Conditions: T. brucei, 72 hours, normalized to DMSO control; for inhibition at 2 µM / inhibition at 5 µM: Trypanosoma brucei. How it is done: To determine cell growth rate, WT and two TbRPA1 RNAi KD strains (KD1 and KD2) were seeded at a density of 1×10^5 cells/ml and cultured with or without tetracycline for the induction of RNAi. Cells were counted every 12 hours for 2 days. To determine the viability of TbRPA1-depleted cells, ALAMARBLUE® assay (Thermo Fisher, an established colorimetric technique that detects metabolically active cells) was used. Cells from each time point were incubated with ALAMARBLUE® dye for 4-6 hours and percentage of live cells was determined by measuring resorufin converted from resazurin by reducing environment of live cells. Synergy H1 microplate reader (BioTek) was used with 560/590 nm (excitation/emission) filter settings and Relative Fluorescence Unit (RFU) values were obtained. The percentage of viable cells were calculated from the RFU values.
The initial assessment of JC-229's inhibitory effect on T. brucei cell growth was performed at 50 μM concentration. Trypanosome cells were seeded at 1×10^3 cells/ml density in 180 μl in a 96-well culture plate in triplicate. These cells were incubated with 50 μM JC-229 for 24, 48, and 72 hours. DMSO was used as a vehicle control at 0.0075%. JC-229-treated culture and control cultures were analyzed with the ALAMARBLUE® dye as described above.
To obtain the EC50 value of JC-229, T. brucei cells were seeded at 1×10^3 cells/ml density in 180 μl in a 96-well culture plate in triplicate. These cells were incubated for 72 hours with increasing concentrations of JC-229, (0.5 μM to 50 μM) and cell viability was determined using the ALAMARBLUE® dye as described above.
Trypanosoma brucei cytotoxicity of JC-229 and analogs were measured using ALAMARBLUE® assay (Rampersad, S. N. Multiple applications of ALAMARBLUE® as an indicator of metabolic function and cellular health in cell viability bioassays. Sensors (Basel) 12, 12347-12360 (2012). Trypanosome cells were seeded at 1×10^3 cells/ml density in 180 μl in a 96-well culture plate in triplicate. These cells were incubated with indicated concentration of JC compounds for 72 hours. DMSO was used as a vehicle control at 0.0075%. JC compound-treated cultures were then incubated with ALAMARBLUE® dye for 4-6 hours and percentage of live cells was determined using Synergy H1 microplate reader (BioTek) with 560/590 nm (excitation/emission) filter settings and Relative Fluorescence Unit (RFU) values were obtained. The percentage of viable cells were calculated from the RFU values by normalizing to DMSO treated control. In one embodiment, the inhibitor is characterized in that it provides at least 50%, at least 80% or at least 90% inhibition at a concentration of 5 μM when tested in accordance with the above conditions.

In the case of `Cc1ccc(C(=O)Nc2ccc(Cl)c(Cl)c2)cc1S(=O)(=O)N1CCCC(N)C1.O=C(O)C(F)(F)F` (stereo not shown) [JC-959], the “% Inhibition @2 μM” value came to 64% and the “% Inhibition @5 μM” value worked out at 100%.
As to `Cc1ccc(C(=O)Nc2ccc(Cl)c(Cl)c2)cc1S(=O)(=O)N1CCCC(NC(=O)OC(C)(C)C)C1` (stereo not shown) [JC-962], the “% Inhibition @2 μM” value came to 36% and the “% Inhibition @5 μM” value was found to be 100%.
For the compound `Cc1ccc(C(=O)Nc2ccc(Cl)c(Cl)c2)cc1S(=O)(=O)N1CCC[C@@H](N)C1` [JC-963], the inhibition (as a rule, the percentage by which the read-out fell short of the control) at 2 µM worked out at 96% and the inhibition at 5 µM stood at 100%.
Take `Cc1ccc(C(=O)Nc2ccc(Cl)c(Cl)c2)cc1S(=O)(=O)N1CCCC(NS(C)(=O)=O)C1` (stereo not shown) [JC-964]: the “% Inhibition @2 μM” value is −16% and the “% Inhibition @5 μM” value is −23%.
Turning to `Cc1ccc(C(=O)Nc2ccc(Cl)c(Cl)c2)cc1S(=O)(=O)N1CCCC(NC(=S)Nc2ccc(F)cc2)C1` (stereo not shown) [JC-965], the “% Inhibition @2 μM” value worked out at 64% and the “% Inhibition @5 μM” value is 100%.
Regarding `Cc1ccc(C(=O)Nc2ccc(Cl)c(Cl)c2)cc1S(=O)(=O)N1CCC(NC(=O)c2ccccc2)CC1` [JC-966], the “% Inhibition @2 μM” value came to 13% and the “% Inhibition @5 μM” value is given as 0%.
Turning to `Cc1ccc(C(=O)Nc2ccc(Cl)c(Cl)c2)cc1S(=O)(=O)N1CCC(NC(=O)Cc2ccccc2)CC1` [JC-967], the “% Inhibition @2 μM” value worked out at 15% and the “% Inhibition @5 μM” value is −24%.
Turning to `Cc1ccc(C(=O)Nc2ccc(Cl)c(Cl)c2)cc1S(=O)(=O)N1CCC(NC(=O)CCc2ccccc2)CC1` [JC-968], the “% Inhibition @2 μM” value was 1% and the “% Inhibition @5 μM” value is on record as 5%.
In the same order, the values of `Cc1ccc(C(=O)Nc2ccc(Cl)c(Cl)c2)cc1S(=O)(=O)N1CCC(NS(C)(=O)=O)CC1` [JC-969] are 18% and −4%.
Regarding `Cc1ccc(C(=O)Nc2ccc(Cl)c(Cl)c2)cc1S(=O)(=O)N1CCC(NC(=S)Nc2ccc(F)cc2)CC1` [JC-970], the inhibition at 2 µM was found to be 100% and the inhibition at 5 µM is 100%.
In the case of `Cc1ccc(C(=O)Nc2ccc(Cl)c(Cl)c2)cc1S(=O)(=O)NCCNS(=O)(=O)c1ccc(CBr)cc1` [JC-993], the “% Inhibition @2 μM” value was 76% and the “% Inhibition @5 μM” value worked out at 100%.
For `Cc1ccc(C(=O)Nc2ccc(Cl)c(Cl)c2)cc1S(=O)(=O)NCCNS(=O)(=O)c1cccc(Br)c1` [JC-994], in that order: −17% and 61%.
Take `Cc1ccc(C(=O)Nc2ccc(Cl)c(Cl)c2)cc1S(=O)(=O)NCCNS(=O)(=O)c1ccc(Br)cc1C(F)(F)F` [JC-995]: the “% Inhibition @2 μM” value is on record as −34% and the “% Inhibition @5 μM” value worked out at 93%.
For `Cc1ccc(C(=O)Nc2ccc(Cl)c(Cl)c2)cc1S(=O)(=O)NCCNS(=O)(=O)c1cccc(F)c1` [JC-996], in that order: −19% and 69%.
Consider `Cc1ccc(C(=O)Nc2ccc(Cl)c(Cl)c2)cc1S(=O)(=O)NCCNS(=O)(=O)c1ccc(OCc2ccccc2)cc1` [JC-997], for which the “% Inhibition @2 μM” value was −9% and the “% Inhibition @5 μM” value amounted to 92%.
Take `Cc1ccc(C(=O)Nc2ccc(Cl)c(Cl)c2)cc1S(=O)(=O)NCCCNS(=O)(=O)c1ccc(Br)cc1` [JC-998]: the “% Inhibition @2 μM” value is 0% and the “% Inhibition @5 μM” value worked out at 100%.
In the same order, the values of `COc1ccc(NC(=S)NCCNS(=O)(=O)c2cc(C(=O)Nc3ccc(Cl)c(Cl)c3)ccc2C)cc1` [JC-999] are −7% and −6%.
Take `Cc1ccc(C(=O)Nc2ccc(Cl)c(Cl)c2)cc1S(=O)(=O)NCCNC(=S)Nc1cccc(C(F)(F)F)c1` [JC-1000]: the “% Inhibition @2 μM” value is reported as 21% and the “% Inhibition @5 μM” value is reported as 58%.
For `Cc1ccc(C(=O)Nc2ccc(Cl)c(Cl)c2)cc1S(=O)(=O)NCCNC(=S)Nc1ccccc1F` [JC-1001], the “% Inhibition @2 μM” value is on record as 49% and the “% Inhibition @5 μM” value came out at 66%.
With `Cc1ccc(C(=O)Nc2ccc(Cl)c(Cl)c2)cc1S(=O)(=O)NCCNC(=S)Nc1ccc(Cl)c(Cl)c1` [JC-1002], the “% Inhibition @2 μM” value is recorded as 34% and the “% Inhibition @5 μM” value was determined as 100%.
As to `Cc1ccc(C(=O)Nc2ccc(Cl)c(Cl)c2)cc1S(=O)(=O)NCCNC(=S)Nc1ccc(C(F)(F)F)cc1` [JC-1003], the “% Inhibition @2 μM” value was 0% and the “% Inhibition @5 μM” value is on record as 80%.
Take `COc1ccc(NC(=S)NC2CCCN(S(=O)(=O)c3cc(C(=O)Nc4ccc(Cl)c(Cl)c4)ccc3C)C2)cc1` (stereo not shown) [JC-1004]: the “% Inhibition @2 μM” value is on record as 32% and the “% Inhibition @5 μM” value came to 94%.
For `Cc1ccc(C(=O)Nc2ccc(Cl)c(Cl)c2)cc1S(=O)(=O)N1CCCC(NC(=S)Nc2cccc(C(F)(F)F)c2)C1` (stereo not shown) [JC-1005], in that order: 100% and 100%.
For `Cc1ccc(C(=O)Nc2ccc(Cl)c(Cl)c2)cc1S(=O)(=O)N1CCCC(NC(=S)Nc2ccccc2F)C1` (stereo not shown) [JC-1006], in that order: 17% and 101%.
For `Cc1ccc(C(=O)Nc2ccc(Cl)c(Cl)c2)cc1S(=O)(=O)N1CCCC(NC(=S)Nc2ccc(Cl)c(Cl)c2)C1` (stereo not shown) [JC-1007], in that order: 100% and 101%.
In the case of `Cc1ccc(C(=O)Nc2ccc(Cl)c(Cl)c2)cc1S(=O)(=O)N1CCCC(NC(=S)Nc2ccc(C(F)(F)F)cc2)C1` (stereo not shown) [JC-1008], the “% Inhibition @2 μM” value was 100% and the “% Inhibition @5 μM” value came to 100%.
With `Cc1ccc(C(=O)Nc2ccc(Cl)c(Cl)c2)cc1S(=O)(=O)N1CCC(NS(=O)(=O)c2ccc(CBr)cc2)CC1` [JC-1009], the “% Inhibition @2 μM” value is 99% and the “% Inhibition @5 μM” value is listed as 100%.
As for `Cc1ccc(C(=O)Nc2ccc(Cl)c(Cl)c2)cc1S(=O)(=O)N1CCC(NS(=O)(=O)c2cccc(Br)c2)CC1` [JC-1010], the “% Inhibition @2 μM” value is recorded as 9% and the “% Inhibition @5 μM” value is on record as −15%.
In the case of `Cc1ccc(C(=O)Nc2ccc(Cl)c(Cl)c2)cc1S(=O)(=O)N1CCC(NS(=O)(=O)c2ccc(Br)cc2C(F)(F)F)CC1` [JC-1011], the “% Inhibition @2 μM” value is 63% and the “% Inhibition @5 μM” value was determined as 101%.
As for `Cc1ccc(C(=O)Nc2ccc(Cl)c(Cl)c2)cc1S(=O)(=O)N1CCC(NS(=O)(=O)c2cccc(F)c2)CC1` [JC-1012], the “% Inhibition @2 μM” value was 36% and the “% Inhibition @5 μM” value is 97%.
For `Cc1ccc(C(=O)Nc2ccc(Cl)c(Cl)c2)cc1S(=O)(=O)N1CCC(NS(=O)(=O)c2ccc(COc3ccccc3)cc2)CC1` [JC-1013], in that order: 13% and −9%.
In the case of `Cc1ccc(C(=O)Nc2ccc(Cl)c(Cl)c2)cc1S(=O)(=O)N1CCC(NS(=O)(=O)c2ccc(Br)cc2)CC1` [JC-1014], the “% Inhibition @2 μM” value was found to be 100% and the “% Inhibition @5 μM” value is 100%.
Turning to `Cc1ccc(C(=O)Nc2ccc(Cl)c(Cl)c2)cc1S(=O)(=O)NCCCNC(=S)Nc1ccc(F)cc1` [JC-1015], the “% Inhibition @2 μM” value stood at 11% and the “% Inhibition @5 μM” value was found to be 100%.
On to `COc1ccc(NC(=S)NC2CCN(S(=O)(=O)c3cc(C(=O)Nc4ccc(Cl)c(Cl)c4)ccc3C)CC2)cc1` [JC-1016], for which the “% Inhibition @2 μM” value is listed as 52% and the “% Inhibition @5 μM” value was 100%.
Turning to `Cc1ccc(C(=O)Nc2ccc(Cl)c(Cl)c2)cc1S(=O)(=O)N1CCC(NC(=S)Nc2cccc(C(F)(F)F)c2)CC1` [JC-1017], the “% Inhibition @2 μM” value is 100% and the “% Inhibition @5 μM” value is listed as 100%.
In the case of `Cc1ccc(C(=O)Nc2ccc(Cl)c(Cl)c2)cc1S(=O)(=O)N1CCC(NC(=S)Nc2ccccc2F)CC1` [JC-1018], the “% Inhibition @2 μM” value is recorded as 100% and the “% Inhibition @5 μM” value is reported as 100%.
As to `Cc1ccc(C(=O)Nc2ccc(Cl)c(Cl)c2)cc1S(=O)(=O)N1CCC(NC(=S)Nc2ccc(C(F)(F)F)cc2)CC1` [JC-1020], the “% Inhibition @2 μM” value is on record as 100% and the “% Inhibition @5 μM” value was found to be 100%.
For the compound `Cc1ccc(C(=O)Nc2ccc(Cl)c(Cl)c2)cc1S(=O)(=O)NCCNS(=O)(=O)c1cc(C(=O)Nc2ccc(Cl)c(Cl)c2)ccc1C` [JC-1021], the “% Inhibition @2 μM” value was 0% and the “% Inhibition @5 μM” value is −5%.
